Assay results published in patent publication US12630498B2 (Genzyme Corporation, priority 2019, dated 2026).

Target: T1, human Cystic Fibrosis Transmembrane Conductance Regulator (CFTR) harboring the ΔF508 mutation (Homo sapiens, UniProt P13569, DEL508-508)
T1 construct: expressed in transfected cells; host or cells: H441 carcinoma line (G418-selected)
Experiment: H441 cell ΔF508-CFTR-HRP cell surface assay (Emax and EC50)
Format: cell-based
Details: for Emax: NCI-H441, NA = Not active
Summary of the method: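 H441 and 41o- bronchial epithelial cells expressing ΔF508-CFTR with an extracellular-loop-4 HRP tag were treated with a 15-point compound series (24.5–0.001 μM) for two nights, H441 at 27° C, 41o- at 37° C with 0.0005 mg/ml doxycycline. Surface HRP luminescence read; % of maximum VX809 signal and EC50 derived.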

T1 sequence (P13569 with tags, fused parts or gaps DEL508-508): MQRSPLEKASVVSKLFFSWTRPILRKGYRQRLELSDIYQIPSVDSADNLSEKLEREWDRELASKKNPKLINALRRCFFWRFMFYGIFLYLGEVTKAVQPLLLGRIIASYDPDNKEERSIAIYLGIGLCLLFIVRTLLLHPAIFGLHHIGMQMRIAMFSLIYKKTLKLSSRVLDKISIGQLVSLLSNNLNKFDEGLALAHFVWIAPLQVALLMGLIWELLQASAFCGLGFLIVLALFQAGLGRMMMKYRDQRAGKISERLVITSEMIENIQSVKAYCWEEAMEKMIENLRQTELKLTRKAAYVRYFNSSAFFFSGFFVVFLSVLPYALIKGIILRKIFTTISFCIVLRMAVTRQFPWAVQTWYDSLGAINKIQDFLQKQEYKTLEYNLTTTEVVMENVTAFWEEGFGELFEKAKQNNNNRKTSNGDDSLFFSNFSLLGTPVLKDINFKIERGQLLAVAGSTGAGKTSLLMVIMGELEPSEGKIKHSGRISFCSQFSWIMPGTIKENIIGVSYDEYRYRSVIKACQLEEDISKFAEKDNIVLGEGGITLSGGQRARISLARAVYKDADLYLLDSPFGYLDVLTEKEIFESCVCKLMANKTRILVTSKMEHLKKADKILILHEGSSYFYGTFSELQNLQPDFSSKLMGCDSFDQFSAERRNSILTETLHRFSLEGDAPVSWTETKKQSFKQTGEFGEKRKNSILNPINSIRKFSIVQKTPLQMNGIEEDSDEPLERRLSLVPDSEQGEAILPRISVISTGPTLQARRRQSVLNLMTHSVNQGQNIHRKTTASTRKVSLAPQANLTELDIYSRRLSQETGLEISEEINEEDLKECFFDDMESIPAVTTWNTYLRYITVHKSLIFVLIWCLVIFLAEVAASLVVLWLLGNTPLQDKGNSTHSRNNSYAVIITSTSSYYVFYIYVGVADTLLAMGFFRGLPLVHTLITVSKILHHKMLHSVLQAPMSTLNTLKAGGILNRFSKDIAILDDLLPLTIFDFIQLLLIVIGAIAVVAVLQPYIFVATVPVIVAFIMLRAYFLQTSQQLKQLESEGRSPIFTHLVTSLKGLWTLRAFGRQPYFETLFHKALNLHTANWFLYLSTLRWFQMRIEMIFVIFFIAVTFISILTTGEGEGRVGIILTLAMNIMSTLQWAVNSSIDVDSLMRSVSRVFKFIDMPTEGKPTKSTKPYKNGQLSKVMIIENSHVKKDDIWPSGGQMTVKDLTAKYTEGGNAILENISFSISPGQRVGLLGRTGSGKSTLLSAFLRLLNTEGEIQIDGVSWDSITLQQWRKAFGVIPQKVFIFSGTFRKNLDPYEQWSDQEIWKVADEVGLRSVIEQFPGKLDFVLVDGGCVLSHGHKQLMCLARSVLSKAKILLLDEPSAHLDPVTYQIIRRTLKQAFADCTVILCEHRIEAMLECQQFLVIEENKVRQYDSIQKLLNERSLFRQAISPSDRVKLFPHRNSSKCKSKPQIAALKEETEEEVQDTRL

EC50 [µM] | Emax [%] | SMILES
2.7 | 46.6 | CC(C)(C)C[C@H](NC(=O)c1ccc2cc(N)ccc2c1OCc1ccc(C(F)(F)F)cc1)C(=O)O [Example 186, (S)-2-(6-amino-1-((4-(trifluoromethyl)benzyl)oxy)-2-naphthamido)-4,4-dimethylpentanoic Acid]
 | 6.6 | CC(C)(SCC1CC1(F)F)[C@H](NC(=O)c1ccc2ccccc2c1OCc1ccc(S(C)(=O)=O)cc1)C(=O)O (stereo partly drawn) [Example 166, (2R)-3-(((2,2-difluorocyclopropyl)methyl)thio)-3-methyl-2-(1-((4-(methylsulfonyl)benzyl)oxy)-2-naphthamido)butanoic Acid]
5.1 | 19.9 | CC1(C(NC(=O)c2ccc3ccccc3c2OCc2ccc(S(C)(=O)=O)cc2)C(=O)O)CCCCC1 (stereo not drawn) [Example 44, 2-(1-methylcyclohexyl)-2-(1-((4-(methylsulfonyl)benzyl)oxy)-2-naphthamido)acetic Acid]
20.3 | 31.5 | N#Cc1ccc(COc2c(C(=O)N[C@@H](Cc3ccccc3)C(=O)O)ccc3ccccc23)cc1 [Example 125, (1-((4-cyanobenzyl)oxy)-2-naphthoyl)-L-phenylalanine]
1.1 | 66.1 | O=C(N[C@H](C(=O)O)C12CC(C(F)(F)F)(C1)C2)c1ccc2ccccc2c1OCc1ccc(S(F)(F)(F)(F)F)cc1 [Example 24, (S)-2-(1-((4-(pentafluoro-λ^6-sulfanyl)benzyl)oxy)-2-naphthamido)-2-(3-(trifluoromethyl)bicyclo[1.1.1]pentan-1-yl)acetic Acid]
16.4 | 38.4 | COCC[C@H](NC(=O)c1ccc2ccccc2c1OCc1ccc(C(F)(F)F)cc1)C(=O)O [Example 137, O-methyl-N-(1-((4-(trifluoromethyl)benzyl)oxy)-2-naphthoyl)-L-homoserine]
0.7 | 153 | CC1([C@H](NC(=O)c2ccc3ccc(C(F)(F)F)cc3c2OCc2ccc(C(F)(F)F)cc2)C(=O)O)CC1 [compound 298, (S)-2-(1-methylcyclopropyl)-2-(7-(trifluoromethyl)-1-((4-(trifluoromethyl)benzyl)oxy)-2-naphthamido)acetic Acid]
20.4 | 40.4 | O=C(N[C@H](C(=O)O)C(c1ccccc1)c1ccccc1)c1ccc2ccccc2c1OCc1ccc(Cl)c(Cl)c1 [Example 207, (S)-2-(1-((3,4-dichlorobenzyl)oxy)-2-naphthamido)-3,3-diphenylpropanoic Acid]
1.9 | 51.7 | O=C(N[C@H](C(=O)O)C1CCCC1)c1ccc2ccccc2c1OCc1ccc(S(=O)(=O)C(F)(F)F)cc1 [Example 156, (S)-2-cyclopentyl-2-(1-((4-((trifluoromethyl)sulfonyl)benzyl)oxy)-2-naphthamido)acetic Acid]
16.4 | 44.3 | O=C(N[C@@H](Cc1ccccc1)C(=O)O)c1ccc2ccccc2c1OCc1ccc([N+](=O)[O-])cc1 [Example 91, (1-((4-nitrobenzyl)oxy)-2-naphthoyl)-L-phenylalanine]
1.5 | 43.6 | COc1ccc2c(OCc3ccc(SC(F)(F)F)cc3)c(C(=O)N[C@H](C(=O)O)C(C)(C)C)ccc2c1 [Example 63, (S)-2-(6-methoxy-1-((4-((trifluoromethyl)thio)benzyl)oxy)-2-naphthamido)-3,3-dimethylbutanoic Acid]
18.3 | 65.2 | C[C@@H](OCc1ccccc1)C(NC(=O)c1ccc2ccccc2c1OCc1nc2ccccc2s1)C(=O)O (stereo partly drawn) [Example 148, (3R)-2-(1-(benzo[d]thiazol-2-ylmethoxy)-2-naphthamido)-3-(benzyloxy)butanoic Acid]
4 | 31.4 | O=C(NC(C(=O)O)C(C(F)(F)F)C(F)(F)F)c1ccc2cc(F)ccc2c1OCc1ccc(C(F)(F)F)cc1 (stereo not drawn) [Example 182, 4,4,4-trifluoro-2-(6-fluoro-1-((4-(trifluoromethyl)benzyl)oxy)-2-naphthamido)-3-(trifluoromethyl)butanoic Acid]
0.7 | 37.2 | O=C(N[C@H](C(=O)O)C12CC(C(F)(F)F)(C1)C2)c1ccc2cc(F)ccc2c1OCc1ccc(OC(F)(F)F)cc1 [Example 4, (S)-2-(6-fluoro-1-((4-(trifluoromethoxy)benzyl)oxy)-2-naphthamido)-2-(3-(trifluoromethyl)bicyclo[1.1.1]pentan-1-yl)acetic Acid]
3.2 | 63.9 | O=C(NC(C(=O)O)C(C(F)(F)F)C(F)(F)F)c1ccc2ccccc2c1OCC1CCCCC1 (stereo not drawn) [Example 183, 2-(1-(cyclohexylmethoxy)-2-naphthamido)-4,4,4-trifluoro-3-(trifluoromethyl)butanoic Acid]
6.7 | 22.8 | CS(=O)(=O)c1ccc(COc2c(C(=O)N[C@H](C(=O)O)C3CCCC3)ccc3ccccc23)cc1 [Example 159, (S)-2-cyclopentyl-2-(1-((4-(methylsulfonyl)benzyl)oxy)-2-naphthamido)acetic Acid]
2.1 | 12.8 | CC(C)(C)[C@H](NC(=O)c1ccc2ccccc2c1OCc1ccc(S(C)(=O)=O)cc1)C(=O)O [Example 66, (S)-3,3-dimethyl-2-(1-((4-(methylsulfonyl)benzyl)oxy)-2-naphthamido)butanoic Acid]
11.6 | 49.2 | O=C(N[C@H](C(=O)O)C(c1ccccc1)c1ccccc1)c1ccc2ccccc2c1OCc1ccc(C(F)(F)F)cn1 [Example 132, (S)-3,3-diphenyl-2-(1-((5-(trifluoromethyl)pyridin-2-yl)methoxy)-2-naphthamido)propanoic Acid]
1.6 | 90.3 | CC1(C(NC(=O)c2ccc3cc(F)ccc3c2OCc2ccc(C(F)(F)F)cc2)C(=O)O)CC1 (stereo not drawn) [Example 60, 2-(6-fluoro-1-((4-(trifluoromethyl)benzyl)oxy)-2-naphthamido)-2-(1-methylcyclopropyl)acetic Acid]
7.1 | 58.3 | CC(C)(C)[C@H](NC(=O)c1ccc2cc(F)ccc2c1OCC1CCC(F)(F)CC1)C(=O)O [Example 76, (S)-2-(1-((4,4-difluorocyclohexyl)methoxy)-6-fluoro-2-naphthamido)-3,3-dimethylbutanoic Acid]
 | 22.4 | O=C(N[C@@H](Cc1ccncc1)C(=O)O)c1ccc2ccccc2c1OCc1ccc(C(F)(F)F)cc1 [Example 103, (S)-3-(pyridin-4-yl)-2-(1-((4-(trifluoromethyl)benzyl)oxy)-2-naphthamido)propanoic Acid]
1.9 | 58.1 | CC(C)(C)C[C@H](NC(=O)c1ccc2cc(F)ccc2c1OCc1ccc(S(F)(F)(F)(F)F)cc1)C(=O)O [Example 112, (S)-2-(6-fluoro-1-((4-(pentafluoro-16-sulfanyl)benzyl)oxy)-2-naphthamido)-4,4-dimethylpentanoic Acid]
 | 11.7 | NC12CCC(C(NC(=O)c3ccc4cc(F)ccc4c3OCc3ccc(OC(F)(F)F)cc3)C(=O)O)(CC1)CC2 (stereo not drawn) [Example 184, 2-(4-aminobicyclo[2.2.2]octan-1-yl)-2-(6-fluoro-1-((4-(trifluoromethoxy)benzyl)oxy)-2-naphthamido)acetic Acid]
9.8 | 29.2 | CC(C)(c1ccccc1)[C@H](NC(=O)c1ccc2ccccc2c1OCc1ccc(S(C)(=O)=O)cc1)C(=O)O [Example 23, (S)-3-methyl-2-(1-((4-(methylsulfonyl)benzyl)oxy)-2-naphthamido)-3-phenylbutanoic Acid]
